Several values for one entry are separate records, joined by “and”; a condition that tells them apart may be missing. Equal values may be shown once. Read-outs that look alike come from different tables or passages of the source.
How the values were obtained:
CB2 receptor = target: T1, CB2 receptor (Rattus norvegicus, UniProt Q9QZN9); assay: 3H-WIN 55,212-2 binding displacement on RBL-2H3 cell membranes; details: for IC50: RBL-2H3 cell membranes, 1% DMSO, means ± SEM
T1 construct: 30 µg membrane proteins prepared in item a); endogenous in cells; host or cells: RBL-2H3 cells (plasma membrane preparation)
T1 sequence (Q9QZN9 1-360): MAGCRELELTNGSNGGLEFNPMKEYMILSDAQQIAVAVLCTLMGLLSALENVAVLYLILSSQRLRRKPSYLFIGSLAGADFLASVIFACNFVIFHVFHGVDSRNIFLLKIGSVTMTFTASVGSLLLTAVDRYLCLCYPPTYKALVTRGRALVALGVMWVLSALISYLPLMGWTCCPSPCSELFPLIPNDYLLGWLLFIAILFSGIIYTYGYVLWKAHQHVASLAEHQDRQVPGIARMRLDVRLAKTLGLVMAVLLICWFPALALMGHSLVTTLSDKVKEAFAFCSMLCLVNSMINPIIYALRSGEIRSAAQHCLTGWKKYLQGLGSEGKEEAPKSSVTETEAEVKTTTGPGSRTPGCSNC

RBL-2H3 cells = assay: 3H-serotonin release induced by ADNP/DNP.HSA immunogenic stimulation; format: cell-based, rat; details: for effect on serotonin release (RBL cells immunogenic activation): statement in words on Table 3; for inhibition at 100 µM / EC50 / inhibition at 60 µM / inhibition at 10 µM / inhibition at 20 µM / inhibition at 12.5 µM / inhibition at 25 µM: Rattus norvegicus; for inhibition at 10 µM: RBL-2H3, 10µM; for inhibition at 12.5 µM: RBL-2H3, 12.5µM, -WIN
[1] = solubility in organic solvents; format: physicochemical; details: organic solvent or mixture, read-out: solubility in org. sol.
[2] = 100µM, 0.1% DMSO and 0.1% ethanol
[3] = competitor 10 µM, amides in 0.1% DMSO, Anandamide and Nabilone in 0.1% ethanol
[4] = RBL-2H3, concentration inhibiting by 50% the net release of 3H serotonin, 0.2% DMSO, 15 minutes release period, means ± SEM, read-out: EC50
[5] = RBL-2H3, concentration inhibiting by 50% the net release of 3H serotonin, 1% DMSO, 15 minutes release period, means ± SEM, read-out: EC50
[6] = RBL-2H3, inhibition of 3H-serotonin release, +anandamide (12.5 µM), read-out: ED50 (the source's name)
[7] = RBL-2H3, inhibition of 3H-serotonin release, -anandamide, read-out: ED50 (the source's name)
[8] = phosphate buffer, pH 7.4, aqueous buffer
[9] = read-out: 3H-serotonin net release inhibition (%)

SMILES: C=C(C)[C@@H]1CCC(C)=C[C@H]1c1c(O)cc(CCCCC)cc1O [Cannabidiol, reference compound]
- IC50 (CB2 receptor; IC50 (nM)): > 1000 nM

SMILES: CCCCCCCCCCCCCCCC(=O)N[C@@H](CO)C(=O)O [Example 1, N-palmitoyl-L-serine]
- 3H-serotonin net release (%) (RBL-2H3 cells; [2]): 0%
- effect on serotonin release (RBL cells immunogenic activation) (RBL-2H3 cells): can inhibit the effects induced by mast cell activation
- IC50 (CB2 receptor; read-out: IC50): 0.04 nM and 0.05 nM
- Displacement (%) (CB2 receptor; [3]): 100%
- water solubility (water solubility): slightly soluble
- solubility ([1]; in DMSO): > 10000 µg/mL
- solubility ([1]; in ethanol): > 10000 µg/mL

SMILES: CCCCCCCCCCCC(=O)N[C@@H](CO)C(=O)O [Example 2, N-lauroyl-L-serine]
- inhibition at 100 µM (RBL-2H3 cells; RBL-2H3, DMSO 0.2%, 100µM): 79%
- inhibition at 100 µM (RBL-2H3 cells; RBL-2H3, DMSO 1%, 100µM): 61%
- water solubility (water solubility): slightly soluble
- solubility (water solubility; water): > 10000 µg/mL
- solubility ([1]; in DMSO): > 10000 µg/mL
- solubility ([1]; in ethanol): > 10000 µg/mL

SMILES: CCCCCCCC/C=C\CCCCCCCC(=O)N[C@@H](CO)C(=O)O [Example 3, N-oleoyl-L-serine]
- water solubility (water solubility): slightly soluble
- solubility ([1]; in DMSO): > 10000 µg/mL

SMILES: CCCCCCCCCCCC(=O)N[C@@H](CO)C(=O)OC [Example 5, N-lauroyl-L-serine methylester]
- inhibition at 100 µM (RBL-2H3 cells; RBL-2H3, DMSO 1%, 100µM): 61%
- EC50 (RBL-2H3 cells; [4]): 104 ± 59 µM
- water solubility (water solubility): slightly soluble
- solubility ([1]; in DMSO): > 10000 µg/mL
- solubility ([1]; in ethanol): > 10000 µg/mL

SMILES: CCCCCCCCCCCCCCCC(=O)N[C@@H](CS)C(=O)O [Example 6, N-palmitoyl-L-cysteine]
- inhibition at 60 µM (RBL-2H3 cells; RBL-2H3, DMSO 0.2%): 50%
- inhibition at 100 µM (RBL-2H3 cells; RBL-2H3, DMSO 1%, 100µM): 91%
- EC50 (RBL-2H3 cells; [5]): 29 ± 12 µM
- water solubility (water solubility): slightly soluble
- solubility ([1]; in DMSO): > 10000 µg/mL

SMILES: CCCCCCCCCCCCCCCC(=O)NCC(=O)O [Example 7, N-palmitoyl-glycine]
- 3H-serotonin net release (%) (RBL-2H3 cells; 10µM, 0.1% DMSO and 0.1% ethanol): 27%
- inhibition at 10 µM (RBL-2H3 cells; + anandamide (12.5 µM), read-out: 3H-serotonin net release inhibition (%)): 24%
- inhibition at 10 µM (RBL-2H3 cells; -anandamide, read-out: 3H-serotonin net release inhibition (%)): 73%
- inhibition at 60 µM (RBL-2H3 cells; RBL-2H3, DMSO 0.2%): 85%
- inhibition at 100 µM (RBL-2H3 cells; RBL-2H3, DMSO 1%, 100µM): 100%
- EC50 (RBL-2H3 cells; [6]): > 100 µM
- EC50 (RBL-2H3 cells; [7]): 4.8 µM
- EC50 (RBL-2H3 cells; RBL-2H3, inhibition of serotonin release, 0.1% DMSO and 0.1% ethanol, read-out: ED50 (µm)): 4.8 µM
- effect on serotonin release (RBL cells immunogenic activation) (RBL-2H3 cells): can inhibit the effects induced by mast cell activation
- Displacement (%) (CB2 receptor; [3]): 79%
- Specific binding (CB2 receptor; [3]): 297
- water solubility (water solubility): slightly soluble
- solubility ([1]; in DMSO): > 10000 µg/mL

SMILES: CCCCCCCCCCCC(=O)NCC(=O)O [Example 8, N-lauroyl-glycine]
- inhibition at 100 µM (RBL-2H3 cells; RBL-2H3, DMSO 0.2%, 100µM): 93%
- inhibition at 100 µM (RBL-2H3 cells; RBL-2H3, DMSO 1%, 100µM): 100%
- EC50 (RBL-2H3 cells; [4]): 10 ± 1.5 µM
- EC50 (RBL-2H3 cells; [5]): 7 ± 5 µM
- water solubility (water solubility): slightly soluble
- solubility (water solubility; [8]): > 10000 µg/mL
- solubility ([1]; in DMSO): > 10000 µg/mL
- solubility ([1]; in ethanol): > 10000 µg/mL

SMILES: CCCCCCCCCCCC(=O)NCC(=O)OC [Example 9, N-lauroyl-glycine methylester]
- inhibition at 100 µM (RBL-2H3 cells; RBL-2H3, DMSO 0.2%, 100µM): 55%
- water solubility (water solubility): slightly soluble
- solubility ([1]; in DMSO): > 10000 µg/mL
- solubility ([1]; in ethanol): > 10000 µg/mL

SMILES: CCCCCCCCCCCCCCCC(=O)NCCC(=O)O [Example 10, N-palmitoyl-β-alanine]
- inhibition at 100 µM (RBL-2H3 cells; RBL-2H3, DMSO 0.2%, 100µM): 47%
- EC50 (RBL-2H3 cells; [5]): 30 µM
- water solubility (water solubility): slightly soluble
- solubility ([1]; in DMSO): > 5000 µg/mL
- solubility ([1]; in ethanol): > 5000 µg/mL

SMILES: CCCCCCCCCCCCCCCC(=O)NCCCC(=O)O [Example 11, N-palmitoyl-gamma-aminobutyric acid]
- EC50 (RBL-2H3 cells; [4]): 26 ± 18 µM
- water solubility (water solubility): slightly soluble
- solubility ([1]; in DMSO): > 5000 µg/mL
- solubility ([1]; in ethanol): > 5000 µg/mL

SMILES: O=C(CCCCCCCC(=O)NC(CO)C(=O)O)NC(CO)C(=O)O (stereo not drawn) [Example 12, N,N' -bis-(1-carboxy-2-hydroxyethyl)-nonandiamide]
- water solubility (water solubility): slightly soluble
- solubility (water solubility; water): > 10000 µg/mL
- solubility ([1]; in DMSO): > 10000 µg/mL
- solubility ([1]; in ethanol): > 10000 µg/mL

SMILES: O=C(O)CNC(=O)/C=C/CCCCCCCCC(=O)NCC(=O)O [Example 13, N,N'-trans-2-dodecendioyl-diglycine]
- inhibition at 100 µM (RBL-2H3 cells; RBL-2H3, DMSO 1%, 100µM): 54%
- water solubility (water solubility): slightly soluble
- solubility (water solubility; water): > 10000 µg/mL
- solubility ([1]; in DMSO): > 10000 µg/mL

SMILES: CCCCCCCCCCCCCCCC(=O)N[C@H]1C(O)O[C@H](CO)[C@@H](O)[C@@H]1O (stereo partly drawn) [Example 14, N-palmitoyl-D-glucosamine]
- inhibition at 20 µM (RBL-2H3 cells; RBL-2H3, DMSO 0.2%): 76%
- inhibition at 100 µM (RBL-2H3 cells; RBL-2H3, DMSO 1%, 100µM): 91%
- EC50 (RBL-2H3 cells; [4]): 1.28 ± 0.38 µM
- EC50 (RBL-2H3 cells; [6]): 3.3 µM
- EC50 (RBL-2H3 cells; [7]): 0.51 µM
- water solubility (water solubility): slightly soluble
- solubility ([1]; in DMSO): > 1000 µg/mL

SMILES: CCCCCCCCCCCC(=O)N[C@H]1C(O)O[C@H](CO)[C@@H](O)[C@@H]1O (stereo partly drawn) [Example 15, N-lauroyl-D-glucosamine]
- inhibition at 20 µM (RBL-2H3 cells; RBL-2H3, DMSO 0.2%): 67%
- inhibition at 100 µM (RBL-2H3 cells; RBL-2H3, DMSO 1%, 100µM): 86%
- EC50 (RBL-2H3 cells; [4]): 12 µM
- water solubility (water solubility): slightly soluble
- solubility ([1]; in DMSO): > 5000 µg/mL

SMILES: CCCCCCCC/C=C\CCCCCCCC(=O)N[C@H]1C(O)O[C@H](CO)[C@@H](O)[C@@H]1O (stereo partly drawn) [Example 16, N-oleoyl-D-glucosamine]
- inhibition at 20 µM (RBL-2H3 cells; RBL-2H3, DMSO 0.2%): 92%
- inhibition at 100 µM (RBL-2H3 cells; RBL-2H3, DMSO 1%, 100µM): 86%
- EC50 (RBL-2H3 cells; [4]): 2.4 ± 0.5 µM
- EC50 (RBL-2H3 cells; [6]): 4.2 µM
- EC50 (RBL-2H3 cells; [7]): 2.9 µM
- water solubility (water solubility): slightly soluble
- solubility ([1]; in DMSO): > 5000 µg/mL

SMILES: CCCCCCCCCCCC(=O)N1CC(O)C[C@H]1C(=O)O (stereo partly drawn) [Example 17, N-lauroyl-4-hydroxy-L-proline]
- water solubility (water solubility): slightly soluble
- solubility (water solubility; [8]): > 10000 µg/mL
- solubility ([1]; in DMSO): > 10000 µg/mL
- solubility ([1]; in ethanol): > 10000 µg/mL

SMILES: CCCCCCCCCCCCCCCC(=O)NCCO [N-(2-hydroxyethyl)-hexadecanamide, reference compound]
- 3H-serotonin net release (%) (RBL-2H3 cells; 100µM, 1% DMSO and 1% ethanol): 0%
- EC50 (RBL-2H3 cells; RBL-2H3, inhibition of serotonin release, 1% DMSO and 1% ethanol, read-out: ED50 (µm)): 2.6 µM

SMILES: CCCCC/C=C\C/C=C\CCCCCCCC(=O)NCCO [N-(2-hydroxyethyl)-linoleylamide, reference compound]
- 3H-serotonin net release (%) (RBL-2H3 cells; [2]): 100%

SMILES: CCCCC/C=C\C/C=C\C/C=C\C/C=C\CCCC(=O)O [arachidonic acid, reference compound]
- inhibition at 12.5 µM (RBL-2H3 cells; [9]): 4%

SMILES: NCCO [ethanolamine, reference compound]
- inhibition at 12.5 µM (RBL-2H3 cells; [9]): 6%

SMILES: CCCCCc1cc(O)c2c(c1)OC(C)(C)[C@@H]1CCC(C)=C[C@@H]21 [Δ9-THC, Δ9-tetrahydrocannabinol, reference compound]
- 3H-serotonin net release (%) (RBL-2H3 cells; 25µM, 0.1% DMSO and 0.1% ethanol): 27%
- EC50 (RBL-2H3 cells; RBL-2H3, read-out: ED50 (µm)): 5 µM
- inhibition at 25 µM (RBL-2H3 cells; RBL-2H3, 25µM, -anandamide, read-out: 3H-serotonin net release inhibition (%)): 73%
- EC50 (RBL-2H3 cells; RBL-2H3, read-out: ED50 (the source's name)): 5 µM
- effect on serotonin release (RBL cells immunogenic activation) (RBL-2H3 cells): able to inhibit, in a concentration-dependent way

SMILES: CCCCCc1cc(O)c2c(c1)OC(C)(C)C1CC=C(C)CC21 (stereo not drawn) [Δ 8-THC, Δ8-tetrahydrocannabinol, reference compound]
- inhibition at 25 µM (RBL-2H3 cells; RBL-2H3, read-out: 3H-serotonin net release inhibition (%)): 100%
- EC50 (RBL-2H3 cells; RBL-2H3, read-out: ED50 (µM)): 5 µM
- EC50 (RBL-2H3 cells; RBL-2H3, read-out: ED50 (µm)): 5 µM
- effect on serotonin release (RBL cells immunogenic activation) (RBL-2H3 cells): able to inhibit, in a concentration-dependent way
